We go through 2 substances from US8008077B2, “Photochemical internalization for delivery of molecules into the cytosol” (priority 2000, dated 2011).

For one data set, the system named is V-79 cells. The data set is described as follows: PCI cell killing by bleomycin, cell survival by MTT assay. As to conditions: light before. In kind it is cell-based, Chinese hamster. Here is the method: The Chinese hamster lung fibroblast cell line V-79 was used in this study.
The cells (75 000 cells/well, 1 ml/well) were seeded into 12-well plates (Costar Corning, N.Y., USA) and allowed to attach for 6 h. To some of the wells 1 ml medium with 0.7 μg/ml TPPS2a was added (see Table 1), and the cells were incubated for 18 h (5% v/v CO2, 37° C.) The cells were washed three times with medium. The cells were then incubated in serum-containing medium for 4 h. The medium was removed, new medium was added and the cells were illuminated by exposure to light from a box containing a bank of four fluorescent tubes (Osram 18W/67) with the highest fluence around 420 nm.
Different doses of bleomycin were immediately added. After 1 or 4 h incubation with bleomycin the cells were washed once with RPMI-medium, 1 ml of medium was added and after 3 days of incubation cell survival was measured by the MTT assay. This method is based on reduction of a water-soluble tetrazolium salt (MTT) to a purple, insoluble formazan product by mitochondrial dehydrogenases present in living, metabolically active cells. […] The solution is transferred to a 96 wells plate which is read by a Multiskan EX microplate reader (Labsystems, Finland) with a 570 nm bandpass filter. Cell survival is calculated as percent of control cells not receiving light treatment.

The next data set relates to HCT 116 cells. As to the kind of experiment: Gelonin toxicity after photochemical treatment, protein synthesis by [3H]-leucine incorporation, HCT 116 cells. In kind it is cell-based, human. As to conditions: 1 μg/ml gelonin 18 h. Here is the method: (§1) For the treatment with gelonin 25×10^3 cells per well were seeded out into 24-well plates (Nunc, Denmark). The next day 20 μg/ml AlPcS2a was added, and the cells were incubated for 18 h at 37° C. All the procedures after AlPcS2a addition were carried out in subdued light. For the “light before” strategy, the cells were washed from AlPcS2a and incubated in AlPcS2a-free medium for 4 h. Then the cells were exposed to light (as indicated in the figures) before the treatment with 1 μg/ml gelonin for 18 h. For the “light after” strategy the cells were co-incubated with 20 μg/ml AlPcS2a and 1 μg/ml gelonin for 18 h, and washed before exposure to light as indicated in the figure.
(§2) Non-illuminated cells were treated in a similar way except for illumination. The treated cells were washed once with culture medium and after addition of fresh medium incubated at 37° C. before further analysis. Inhibition of protein synthesis was assayed by [^3H]-leucine incorporation into protein 24 h after light exposure. Illumination was performed from a bench with four light tubes (Philips TL 20W/09) and a long pass filter with a cut off at 550-600 nm. The light intensity reaching the cells was 13.5 W/m^2.

The next data set concerns THX cells. The data set is described as follows: Gelonin toxicity after photochemical treatment, protein synthesis by [3H]-leucine incorporation, THX cells. In kind it is cell-based, human. As to the method:
THX cells were incubated with 20 μg/ml AlPcS2a for 18 hours followed by 4 hours in sensitizer-free medium before exposure to light. The cells were either co-treated with AlPcS2a and 1 μg/ml gelonin, or gelonin (1 μg/ml) was added to the medium immediately after light exposure for 18 hours after which it was removed from the medium as indicated on FIG. 3. Protein synthesis was measured 24 hours after light exposure.
as §1, §2

The subject of data set [1] is WiDr human adenocarcinoma. As to the kind of experiment: PCI with gelonin for treatment of tumours in a mouse in vivo model. Details: species or system Balb/c (nu/nu) mice. Particulars: for effect on tumour cure, in words: gelonin alone; for % TUMOUR-FREE MICE 30 DAYS AFTER ILLUMINATION / FRACTION TUMOUR-FREE MICE 30 DAYS AFTER ILLUMINATION: AlPcS2a 10 mg/kg i.p., gelonin 50 μg intratumorally where given. Here is the method: Water and food was given ad libitum. All procedures involving mice were carried out in agreement with the protocols approved by the animal care committee at the Norwegian Radium Hospital, under control by the National Ethical Committee's guidelines on animal welfare. The mice were on average 20-25 g (5-8 weeks old) at the start of the experiments, and we used at least 5 mice per experiment group. The WiDr human adenocarcinoma used in the present study, was propagated by serial transplantation into the Balb/c (nu/nu) mice. The tumours were minced to homogeneity by a scalpel and 20 μl of the solution injected subcutaneously on the right hip of each mouse. The tumour size was measured two or three times per week by measuring two perpendicular diameters. Tumour volume was calculated using the following formula: V=(W^2×L)/2 where W is the width and L the length diameters of the tumours measured. Treatment
A stock solution of AlPcS2a was diluted to 1.25 mg/ml in PBS and injected intraperitoneally to a final concentration of 10 mg/kg when the tumours had reached a volume of approximately 100 mm^3. 48 h after the injection of AlPcS2a the tumours were exposed for 16 min to red light (see below). Immediately after light exposure gelonin (50 μg total amount in a 2 mg/ml solution, i.e. 25 μl) was injected intratumorally. The mice were kept in the dark for 1 week after the injection of AlPcS2a.
The tumours were illuminated with a 150 W halogen lamp (Xenophot HLX64640) filtered with a 580 nm long pass and a 700 nm short pass filter emitting 150 mW/cm^2. The animals were covered with aluminium foil except above the tumour area where a hole in the foil with a diameter 2 mm larger than the tumour diameter had been made. The tumours were exposed to 145 J/cm^2 of light. Tumour volumes were measured two or three times per week as described above. Mice were killed when the tumours reach a diameter of approximately 20 mm. The fraction of tumour-free mice 30 days after illumination was scored (Table 1), and the mean tumour volume in each treatment group was recorded (FIG. 25).

The mark [2] stands for this setting: with light (145 J/cm^2; "light before" gelonin).

bleomycin: in the data set on V-79 cells (100 μM bleomycin, 1 or 4 h, with 0.7 μg/ml TPPS2a), the “light-induced effect on cytotoxicity (cell survival, MTT)” value is recorded as “substantial light-induced increase in the cytotoxicity”. Further, in the data set on V-79 cells (lowest dose of bleomycin (5 μM, 1 h), with TPPS2a), the “light-induced effect on cell survival (MTT)” value was “lack of effect”.
Consider “Gelonin: plant toxin which efficiently inhibits protein synthesis when it is present in the cytosol of cells”, for which the “toxic effect of gelonin in itself without the PCI treatment” value with HCT 116 cells and in the data set on THX cells (1 μg/ml gelonin 18 h) was “no toxic effect” throughout. Also, the “"light before" strategy compared with "light after" method, inhibition of protein synthesis” value is listed as “works better” in the data set with HCT 116 cells (20 μg/ml AlPcS2a) and “works better” in the data set on THX cells (20 μg/ml AlPcS2a, 1 μg/ml gelonin 18 h). Further, in the data set on THX cells (1 μg/ml gelonin before or after photochemical treatment (20 μg/ml AlPcS2a + light), 24 h after light), the “inhibition of protein synthesis compared with photochemical treatment in the absence of gelonin” value is on record as “significantly greater inhibition of protein synthesis”. Moreover, the “inhibition of protein synthesis, "light before" relative to "light after"” value in the data set with THX cells (highest light dose) was “about 3 fold”. Besides, the “effect on tumour cure, in words” value is reported as “no effect” in data set [1] (with additional light treatment, without AlPcS2a (group 4)) and “no effect” in data set [1] (without light (group 3)). Besides, the “% TUMOUR-FREE MICE 30 DAYS AFTER ILLUMINATION” value in data set [1] (setting [2]) and in data set [1] (without light) was 0% each time. The “FRACTION TUMOUR-FREE MICE 30 DAYS AFTER ILLUMINATION” value in data set [1] (setting [2]) is reported as 0/5; in data set [1] (without light) it was 0/8. For the same substance, the “tumour growth (mean tumour volume)” value in data set [1] (without light) was “grew as fast as in animals given a placebo treatment”.
